Assay results reported in ChEMBL document CHEMBL3045446, “In vitro antimicrobial and antimycobacterial activity of some chalcones and their derivatives” (2013).
In brackets after ≈: the same amount, converted by molar mass.

What was measured:
Type in all cases: functional
[1] = tested on: Mycobacterium tuberculosis; assay: Antituberculosis activity against Mycobacterium tuberculosis H37Rv assessed as growth inhibition after 12 to 28 days by L-J MIC method; details: for MIC: Mycobacterium tuberculosis, H37Rv
[2] = tested on: Candida albicans; assay: Antimicrobial activity against Candida albicans MTCC 183 assessed as growth inhibition after 48 hr by agar streak dilution method; details: MTCC 183, 48 h
[3] = tested on: Aspergillus clavatus; assay: Antimicrobial activity against Aspergillus clavatus MTCC 1323 assessed as growth inhibition after 48 hr by agar streak dilution method; details: MTCC 1323, 48 h
[4] = tested on: Aspergillus fumigatus; assay: Antimicrobial activity against Aspergillus fumigatus MTCC 343 assessed as growth inhibition after 48 hr by agar streak dilution method; details: MTCC 343, 48 h
[5] = tested on: Aspergillus niger; assay: Antimicrobial activity against Aspergillus niger MTCC 282 assessed as growth inhibition after 48 hr by agar streak dilution method; details: MTCC 282, 48 h
[6] = tested on: Shigella flexneri; assay: Antimicrobial activity against Shigella flexneri MTCC1457 assessed as growth inhibition after 24 hr by agar streak dilution method; details: MTCC1457, 24 h
[7] = tested on: Proteus vulgaris; assay: Antimicrobial activity against Proteus vulgaris MTCC 1771 assessed as growth inhibition after 24 hr by agar streak dilution method; details: MTCC 1771, 24 h
[8] = tested on: Salmonella typhi; assay: Antimicrobial activity against Salmonella enterica subsp. enterica serovar Typhi MTCC 733 assessed as growth inhibition after 24 hr by agar streak dilution method; details: MTCC 733, 24 h
[9] = tested on: Klebsiella pneumoniae; assay: Antimicrobial activity against Klebsiella pneumoniae MTCC 109 assessed as growth inhibition after 24 hr by agar streak dilution method; details: MTCC 109, 24 h
[10] = tested on: Pseudomonas aeruginosa; assay: Antimicrobial activity against Pseudomonas aeruginosa MTCC 741 assessed as growth inhibition after 24 hr by agar streak dilution method; details: MTCC 741, 24 h
[11] = tested on: Escherichia coli; assay: Antimicrobial activity against Escherichia coli MTCC 739 assessed as growth inhibition after 24 hr by agar streak dilution method; details: MTCC 739, 24 h
[12] = tested on: Bacillus cereus; assay: Antimicrobial activity against Bacillus cereus MTCC 430 assessed as growth inhibition after 24 hr by agar streak dilution method; details: MTCC 430, 24 h
[13] = tested on: Staphylococcus aureus; assay: Antimicrobial activity against Staphylococcus aureus MTCC 96 assessed as growth inhibition after 24 hr by agar streak dilution method; details: MTCC 96, 24 h
[14] = tested on: Candida albicans; assay: Antimicrobial activity against Candida albicans MTCC 183 assessed as diameter of growth inhibition zone after 48 hr; note: test concentration or dose not given here
[15] = tested on: Aspergillus clavatus; assay: Antimicrobial activity against Aspergillus clavatus MTCC 1323 assessed as diameter of growth inhibition zone after 48 hr; note: test concentration or dose not given here
[16] = tested on: Aspergillus fumigatus; assay: Antimicrobial activity against Aspergillus fumigatus MTCC 343 assessed as diameter of growth inhibition zone after 48 hr; note: test concentration or dose not given here
[17] = tested on: Aspergillus niger; assay: Antimicrobial activity against Aspergillus niger MTCC 282 assessed as diameter of growth inhibition zone after 48 hr; note: test concentration or dose not given here
[18] = tested on: Shigella flexneri; assay: Antimicrobial activity against Shigella flexneri MTCC1457 assessed as diameter of growth inhibition zone after 24 hr
[19] = tested on: Proteus vulgaris; assay: Antimicrobial activity against Proteus vulgaris MTCC 1771 assessed as diameter of growth inhibition zone after 24 hr
[20] = tested on: Salmonella typhi; assay: Antimicrobial activity against Salmonella enterica subsp. enterica serovar Typhi MTCC 733 assessed as diameter of growth inhibition zone after 24 hr
[21] = tested on: Klebsiella pneumoniae; assay: Antimicrobial activity against Klebsiella pneumoniae MTCC 109 assessed as diameter of growth inhibition zone after 24 hr; note: test concentration or dose not given here
[22] = tested on: Pseudomonas aeruginosa; assay: Antimicrobial activity against Pseudomonas aeruginosa MTCC 741 assessed as diameter of growth inhibition zone after 24 hr
[23] = tested on: Escherichia coli; assay: Antimicrobial activity against Escherichia coli MTCC 739 assessed as diameter of growth inhibition zone after 24 hr; note: test concentration or dose not given here
[24] = tested on: Bacillus cereus; assay: Antimicrobial activity against Bacillus cereus MTCC 430 assessed as diameter of growth inhibition zone after 24 hr; note: test concentration or dose not given here
[25] = tested on: Staphylococcus aureus; assay: Antimicrobial activity against Staphylococcus aureus MTCC 96 assessed as diameter of growth inhibition zone after 24 hr; note: test concentration or dose not given here

SMILES | growth inhibition (GI) [1] [%] | MIC [1] [µg/mL] | MIC [2] [µg/mL] | MIC [3] [µg/mL] | MIC [4] [µg/mL] | MIC [5] [µg/mL] | MIC [6] [µg/mL] | MIC [7] [µg/mL] | MIC [8] [µg/mL] | MIC [9] [µg/mL] | MIC [10] [µg/mL] | MIC [11] [µg/mL] | MIC [12] [µg/mL] | MIC [13] [µg/mL] | diameter of the inhibition zone (DIZ) [14] [mm] | diameter of the inhibition zone (DIZ) [15] [mm] | diameter of the inhibition zone (DIZ) [16] [mm] | diameter of the inhibition zone (DIZ) [17] [mm] | diameter of the inhibition zone (DIZ) [18] [mm] | diameter of the inhibition zone (DIZ) [19] [mm] | other results
CC(=O)N1N=C(c2ccc(Nc3cc(=O)oc4ccccc34)cc2)CC1c1ccccc1O (centres undefined) | 98 | 250 (≈ 569 µM) | 100 (≈ 228 µM) | 50 (≈ 114 µM) | 25 (≈ 56.9 µM) | 50 (≈ 114 µM) | 50 (≈ 114 µM) | 100 (≈ 228 µM) | 100 (≈ 228 µM) | 50 (≈ 114 µM) | 100 (≈ 228 µM) | 100 (≈ 228 µM) | 100 (≈ 228 µM) | 100 (≈ 228 µM) | 16 | 20 | 18 | 19 | 18 | 17 | diameter of the inhibition zone (DIZ) [20]: 16 mm; diameter of the inhibition zone (DIZ) [21]: 20 mm; diameter of the inhibition zone (DIZ) [22]: 16 mm; diameter of the inhibition zone (DIZ) [23]: 16 mm; diameter of the inhibition zone (DIZ) [24]: 16 mm; diameter of the inhibition zone (DIZ) [25]: 17 mm
N#Cc1c(-c2ccc(Cl)cc2Cl)cc(-c2ccc(Nc3cc(=O)oc4ccccc34)cc2)nc1N | 99 | 25 (≈ 50.1 µM) | 12.5 (≈ 25 µM) | 25 (≈ 50.1 µM) | 12.5 (≈ 25 µM) | 12.5 (≈ 25 µM) | 12.5 (≈ 25 µM) | 3.12 (≈ 6.25 µM) | 12.5 (≈ 25 µM) | 12.5 (≈ 25 µM) | 6.25 (≈ 12.5 µM) | 12.5 (≈ 25 µM) | 6.25 (≈ 12.5 µM) | 3.12 (≈ 6.25 µM) | 23 | 22 | 23 | 22 | 23 | 28 | diameter of the inhibition zone (DIZ) [20]: 24 mm; diameter of the inhibition zone (DIZ) [21]: 23 mm; diameter of the inhibition zone (DIZ) [22]: 25 mm; diameter of the inhibition zone (DIZ) [23]: 20 mm; diameter of the inhibition zone (DIZ) [24]: 26 mm; diameter of the inhibition zone (DIZ) [25]: 28 mm
O=C(/C=C/c1ccc(Cl)cc1)c1ccc(Nc2cc(=O)oc3ccccc23)cc1 | 95 | 1000 (≈ 2490 µM) | 100 (≈ 249 µM) | 100 (≈ 249 µM) | 100 (≈ 249 µM) | 100 (≈ 249 µM) | 50 (≈ 124 µM) | 100 (≈ 249 µM) | 100 (≈ 249 µM) | 50 (≈ 124 µM) | 100 (≈ 249 µM) | 100 (≈ 249 µM) | 100 (≈ 249 µM) | 50 (≈ 124 µM) | 15 | 14 | 14 | 12 | 18 | 17 | diameter of the inhibition zone (DIZ) [20]: 15 mm; diameter of the inhibition zone (DIZ) [21]: 20 mm; diameter of the inhibition zone (DIZ) [22]: 10 mm; diameter of the inhibition zone (DIZ) [23]: 12 mm; diameter of the inhibition zone (DIZ) [24]: 14 mm; diameter of the inhibition zone (DIZ) [25]: 18 mm
CC(=O)N1N=C(c2ccc(Nc3cc(=O)oc4ccccc34)cc2)CC1c1ccc(Cl)cc1Cl (centres undefined) | 96 | 500 (≈ 1020 µM) | 100 (≈ 203 µM) | 100 (≈ 203 µM) | 50 (≈ 102 µM) | 100 (≈ 203 µM) | 50 (≈ 102 µM) | 12.5 (≈ 25.4 µM) | 50 (≈ 102 µM) | 25 (≈ 50.8 µM) | 25 (≈ 50.8 µM) | 50 (≈ 102 µM) | 12.5 (≈ 25.4 µM) | 12.5 (≈ 25.4 µM) | 15 | 16 | 19 | 17 | 17 | 22 | diameter of the inhibition zone (DIZ) [20]: 17 mm; diameter of the inhibition zone (DIZ) [21]: 19 mm; diameter of the inhibition zone (DIZ) [22]: 20 mm; diameter of the inhibition zone (DIZ) [23]: 18 mm; diameter of the inhibition zone (DIZ) [24]: 21 mm; diameter of the inhibition zone (DIZ) [25]: 22 mm
